According to patent EP4104902B1, “COMPOUNDS AND M[…] SAME” (priority 2020, dated 2021):
pIC50: −log10 of the molar value.

Legend:
[1] = test system: recombinant rabies virus 1088 strain expressing Gaussia Luciferase (GLuc) (1088/GLuc); format: cell-based; details: read-out: Anti-rabies activity
[2] = test system: mouse neuroblastoma cell strain Neuro-2A; experiment: Anti-cancer cell activity evaluation (minimum inhibitory concentration with respect to cells); format: cell-based; details: MIC, 3 days
[3] = compounds of formula XXIIB and formula XXIIF
[4] = compounds of formula XXIIB and formula XXIIF (continuation)

Compound | pIC50 [1] | Anti-cancer cell activity [2, 3] | Anti-cancer cell activity ([2]; compounds of formula XXIB) | Anti-cancer cell activity ([2]; compounds of formula XXIF) | Anti-cancer cell activity [2, 4]
Cc1cccc(CNC(=O)C23N=CC4CC2CN(CC(C)C)C3C4CCCCc2ccccc2)c1 (stereo not shown) [IIB-344] | > 5.30 | b (b if greater than 10 µM and less than or equal to 20 µM) |  |  | 
Cc1cccc(CNC(=O)[C@]23NC[C@@H]4C[C@H]2CN(CC(C)C)[C@H]3[C@@H]4CCCCc2ccccc2)c1 (relative stereo) [IB-937] | > 5.30 |  | c (c if greater than 20 µM and less than or equal to 40 µM) |  | 
CC(C)CN1CC2CC3C=NC2(C(=O)NCc2cccc(Cl)c2)C1C3CCc1ccccc1 (stereo not shown) [IIB-332] | > 5.30 | b (b if greater than 10 µM and less than or equal to 20 µM) |  |  | 
CC(C)CN1CC2CC3C=NC2(C(=O)NCc2cccc(F)c2)C1C3CCCc1ccccc1 (stereo not shown) [IIB-338] | > 5.30 | c (c if greater than 20 µM and less than or equal to 40 µM) |  |  | 
COc1cccc(CNC(=O)C23N=CC4CC2CN(CC(C)C)C3C4CCCCc2ccccc2)c1 (stereo not shown) [IIB-345] | > 5.30 | c (c if greater than 20 µM and less than or equal to 40 µM) |  |  | 
CC(C)CN1C[C@@H]2C[C@H]3CN[C@]2(C(=O)NCc2ccccc2)[C@@H]1[C@@H]3CCCc1ccccc1 (relative stereo) [IB-930] | > 5.30 |  | c (c if greater than 20 µM and less than or equal to 40 µM) |  | 
COc1cccc(CNC(=O)C23N=CC4CC2CN(CC(C)C)C3C4CCCc2ccccc2)c1 (stereo not shown) [IIB-341] | > 5.30 | c (c if greater than 20 µM and less than or equal to 40 µM) |  |  | 
Cc1cccc(CNC(=O)C23CC4CN(CC(C)C)C(C4CN2)C3CCCCc2ccccc2)c1 (stereo not shown) [IF-897] | > 5.30 |  |  | b (b if greater than 10 µM and less than or equal to 20 µM) | 
CC(C)CN1C[C@@H]2C[C@H]3CN[C@]2(C(=O)NCc2cccc(F)c2)[C@@H]1[C@@H]3CCCc1ccccc1 (relative stereo) [IB-932] | > 5.30 |  | c (c if greater than 20 µM and less than or equal to 40 µM) |  | 
CC(C)CN1C[C@@H]2C[C@H]3CN[C@]2(C(=O)NCc2cccc(F)c2)[C@@H]1[C@@H]3CCCCc1ccccc1 (relative stereo) [IB-936] | > 5.30 |  | b (b if greater than 10 µM and less than or equal to 20 µM) |  | 
CC(C)CN1CC2CC3C=NC2(C(=O)NCc2cccc(F)c2)C1C3CCCCc1ccccc1 (stereo not shown) [IIB-343] | > 5.30 | c (c if greater than 20 µM and less than or equal to 40 µM) |  |  | 
CC(C)CN1CC2CC3(C(=O)NCc4cccc(Cl)c4)NCC2C1C3CCCCc1ccccc1 (stereo not shown) [IF-895] | > 5.30 |  |  | b (b if greater than 10 µM and less than or equal to 20 µM) | 
COc1ccc(CNC(=O)[C@]23NC[C@@H]4C[C@H]2CN(CC(C)C)[C@H]3[C@@H]4CCc2ccccc2)cc1 (relative stereo) [IB-927] | > 5.30 |  | c (c if greater than 20 µM and less than or equal to 40 µM) |  | 
CC(C)CN1CC2CC3C=NC2(C(=O)NCc2cccc(Cl)c2)C1C3CCCCc1ccccc1 (stereo not shown) [IIB-342] | 5.00 to 5.30 | b (b if greater than 10 µM and less than or equal to 20 µM) |  |  | 
CC(C)CN1C[C@@H]2C[C@H]3CN[C@]2(C(=O)NCc2ccccc2)[C@@H]1[C@@H]3CCCCc1ccccc1 (relative stereo) [IB-939] | > 5.30 |  | c (c if greater than 20 µM and less than or equal to 40 µM) |  | 
Cc1ccc(CNC(=O)[C@]23NC[C@@H]4C[C@H]2CN(CC(C)C)[C@H]3[C@@H]4CCc2ccccc2)cc1 (relative stereo) [IB-928] | > 5.30 |  | c (c if greater than 20 µM and less than or equal to 40 µM) |  | 

Compound | pIC50 [1] | Anti-cancer cell activity [2, 3] | Anti-cancer cell activity ([2]; compounds of formula XXIB) | Anti-cancer cell activity ([2]; compounds of formula XXIF) | Anti-cancer cell activity [2, 4]
CC(C)CN1CC2CC3(C(=O)NCc4cccc(F)c4)NCC2C1C3CCCCc1ccccc1 (stereo not shown) [IF-896] | > 5.30 |  |  | b (b if greater than 10 µM and less than or equal to 20 µM) | 
CC(C)CN1C[C@@H]2C[C@H]3CN[C@]2(C(=O)NCc2cccc(Cl)c2)[C@@H]1[C@@H]3CCc1ccccc1 (relative stereo) [IB-926] | > 5.30 |  | b (b if greater than 10 µM and less than or equal to 20 µM) |  | 
Cc1cccc(CNC(=O)[C@]23NC[C@@H]4C[C@H]2CN(CC(C)C)[C@H]3[C@@H]4CCCc2ccccc2)c1 (relative stereo) [IB-933] | > 5.30 |  | b (b if greater than 10 µM and less than or equal to 20 µM) |  | 
CC(C)CN1C[C@@H]2C[C@H]3CN[C@]2(C(=O)NCc2cccc(Cl)c2)[C@@H]1[C@@H]3CCCc1ccccc1 (relative stereo) [IB-931] | > 5.30 |  | c (c if greater than 20 µM and less than or equal to 40 µM) |  | 
CC(C)CN1C[C@H]2C[C@]3(C(=O)NCc4ccc(Cl)cc4)N=C[C@H]2[C@H]1[C@H]3CCc1ccccc1 (relative stereo) [IIF-330] | > 5.30 |  |  |  | c (c if greater than 20 µM and less than or equal to 40 µM)
COc1cccc(CNC(=O)[C@]23NC[C@@H]4C[C@H]2CN(CC(C)C)[C@H]3[C@@H]4CCCc2ccccc2)c1 (relative stereo) [IB-934] | > 5.30 |  | b (b if greater than 10 µM and less than or equal to 20 µM) |  | 
Cc1cccc(CNC(=O)C23N=CC4CC2CN(CC(C)C)C3C4CCCc2ccccc2)c1 (stereo not shown) [IIB-340] | > 5.30 | c (c if greater than 20 µM and less than or equal to 40 µM) |  |  | 
CC(C)CN1C[C@@H]2C[C@H]3CN[C@]2(C(=O)NCc2ccc4ccccc4c2)[C@@H]1[C@@H]3CCc1ccccc1 (relative stereo) [IB-929] | > 5.30 |  | b (b if greater than 10 µM and less than or equal to 20 µM) |  | 
CC(C)CN1CC2CC3CNC2(C(=O)NCc2cccc4ccccc24)C1C3CCc1ccccc1 (stereo not shown) [IB-958] | > 5.30 |  | b (b if greater than 10 µM and less than or equal to 20 µM) |  | 
CC(C)CCN1CC2CC3(C(=O)NCc4cccc(F)c4)NCC2C1C3CCCc1ccccc1 (stereo not shown) [IF-900] | > 5.30 |  |  | c (c if greater than 20 µM and less than or equal to 40 µM) | 
CC(C)CN1C[C@@H]2C[C@H]3CN[C@]2(C(=O)NCc2cccc(Cl)c2)[C@@H]1[C@@H]3CCCCc1ccccc1 (relative stereo) [IB-935] | > 5.30 |  | c (c if greater than 20 µM and less than or equal to 40 µM) |  | 
CC(C)CN1C[C@H]2C[C@]3(C(=O)NCc4cccc(Cl)c4)N=C[C@H]2[C@H]1[C@H]3CCc1ccccc1 (relative stereo) [IIF-331] | > 5.30 |  |  |  | c (c if greater than 20 µM and less than or equal to 40 µM)
CC(C)CN1CC2CC3(C(=O)NCc4ccccc4)NCC2C1C3CCCCc1ccccc1 (stereo not shown) [IF-899] | 5.00 to 5.30 |  |  | c (c if greater than 20 µM and less than or equal to 40 µM) | 
CC(C)CN1CC2CC3C=NC2(C(=O)NCc2ccc4ccccc4c2)C1C3CCc1ccccc1 (stereo not shown) [IIB-335] | > 5.30 | c (c if greater than 20 µM and less than or equal to 40 µM) |  |  | 
CC(C)CN1CC2CC3C=NC2(C(=O)NCc2cccc(Cl)c2)C1C3CCCc1ccccc1 (stereo not shown) [IIB-337] | > 5.30 | c (c if greater than 20 µM and less than or equal to 40 µM) |  |  | 
CC(C)CN1CC2CC3C=NC2(C(=O)NCc2ccccc2)C1C3CCCc1ccccc1 (stereo not shown) [IIB-336] | > 5.30 | c (c if greater than 20 µM and less than or equal to 40 µM) |  |  | 
